According to patent US6589963B2, “Heterocyclic compounds and salts thereof and medicinal use of the same” (Kyoto Pharmaceutical Industries, Ltd., priority 1999, dated 2003):

Tests used:
male KK-A^y mice [1] = assay: Hypoglycemic action (method A); assay type: in vivo, mouse; settings: 4 consecutive days, non-fasting, about 24 hours after final administration, vs control group
Method: (§1) The glucose level in the plasma was measured using a commercially available assay kit (glucose CII-test WAKO, Wako Pure Chemical Industries, Ltd.). The mice were grouped (5 mice per group) into a control group and an administration group, such that the mean and the standard deviation of the glucose level in the plasma of each group were nearly the same. Each test compound was suspended or dissolved in 5% gum arabic solution and administered orally to the administration group for 4 consecutive days from the next day. The 5% gum arabic solution was orally administered to the control group. Blood was drawn from the tail vein under a non-fasting state about 24 hours after the final administration and the glucose level in the plasma was measured. The decrease in the plasma glucose level was calculated from the following formula.
Decrease (%) in plasma glucose level=[(mean plasma glucose level of control group−mean plasma glucose level of test compound administration group)/mean plasma glucose level of control group]×100

male KK-A^y mice [2] = assay: Hypotriglyceridemic action; assay type: in vivo, mouse; settings: 4 consecutive days, non-fasting, about 24 hours after final administration, vs control group
Method: as §1, with “triglyceride” for “glucose”, “(triglyceride G-test” for “(glucose CII-test”
Decrease (%) in plasma triglyceride level=[(mean plasma triglyceride level of control group−mean plasma triglyceride level of test compound administration group)/mean plasma triglyceride level of control group]×100

Row | Compound | Decrease (%) in plasma glucose level (male KK-A^y mice [1]; dose 30 mg/kg orally) [%] | Decrease (%) in plasma triglyceride level (male KK-A^y mice [2]; dose 30 mg/kg orally) [%] | Decrease (%) in plasma triglyceride level (male KK-A^y mice [2]; dose 10 mg/kg orally) [%] | Decrease (%) in plasma glucose level (male KK-A^y mice [1]; dose 10 mg/kg orally) [%]
1 | 7-[2-(5-Methyl-2-phenyloxazol-4-yl)ethoxy]-2-(4-pentenoyl)-1,2,3,4-tetrahydroisoquinoline-(3S)-carboxylic acid [Example 44] | 48.0 | 19.1 | – | –
2 | Cc1oc(-c2ccccc2)nc1CCOc1ccc2c(c1)CC(C(=O)O)N(Cc1ccccc1)C2 (racemic) [Example 72, 2-Benzyl-6-[2-(5-methyl-2-phenyloxazol-4-yl)ethoxy]-1,2,3,4-tetrahydroisoquinoline-(3RS)-carboxylic acid] | 15.9 | 24.0 | – | –
3 | CC(=O)N1Cc2cc(OCCc3nc(-c4ccccc4)oc3C)ccc2C[C@H]1C(=O)O [Example 3, 2-Acetyl-7-[2-(5-methyl-2-phenyloxazol-4-yl)ethoxy]-1,2,3,4-tetrahydroisoquinoline-(3S)-carboxylic acid] | 11.8 | – | – | –
4 | Cc1oc(-c2ccccc2)nc1CCOc1ccc2c(c1)CN(C)[C@H](C(=O)O)C2 [Example 4, 2-Methyl-7-[2-(5-methyl-2-phenyloxazol-4-yl)ethoxy]-1,2,3,4-tetrahydroisoquinoline-(3S)-carboxylic acid] | – | – | 14.3 | –
5 | CCCCCCN1Cc2cc(OCCc3nc(-c4ccccc4)oc3C)ccc2C[C@H]1C(=O)O [Example 6] | 12.2 | – | – | 10.7
6 | Cc1oc(-c2ccccc2)nc1CCOc1ccc2c(c1)CN(CC(C)C)[C@H](C(=O)O)C2 [Example 7, 2-Isobutyl-7-[2-(5-methyl-2-phenyloxazol-4-yl)ethoxy]-1,2,3,4-tetrahydroisoquinoline-(3S)-carboxylic acid] | 17.4 | – | – | 11.4
7 | Cc1oc(-c2ccccc2)nc1CCOc1ccc2c(c1)CN(CCCc1ccccc1)[C@H](C(=O)O)C2 [Example 9, 7-[2-(5-Methyl-2-phenyloxazol-4-yl)ethoxy]-2-(3-phenylpropyl)-1,2,3,4-tetrahydroisoquinoline-(3S)-carboxylic acid] | 20.3 | – | – | –
8 | CN(CCOc1ccc2c(c1)CN(Cc1ccccc1)[C@H](C(=O)[O-])C2)c1ccccn1.[Na+] [Example 11, Sodium 2-benzyl-7-[2-(N-methyl-N-(pyridin-2-yl)amino)ethoxy]-1,2,3,4-tetrahydroisoquinoline-(3S)-carboxylate] | – | – | 11.2 | –
9 | CCc1ccc(CCOc2ccc3c(c2)CN(Cc2ccccc2)[C@H](C(=O)[O-])C3)nc1.[Na+] [Example 12, Sodium 2-benzyl-7-[2-(5-ethyl-pyridin-2-yl)ethoxy]1,2,3,4-tetrahydroisoquinoline-(3S)-carboxylate] | – | – | 22.9 | 12.0
10 | Cc1ccc(CN2Cc3cc(OCCc4nc(-c5ccccc5)oc4C)ccc3C[C@H]2C(=O)O)cc1 [Example 18, 2-(4-Methylbenzyl)-7-[2-(5-methyl-2-phenyloxazol-4-yl)ethoxy]-1,2,3,4-tetrahydroisoquinoline-(3S)-carboxylic acid] | 39.7 | 45.5 | – | –
11 | Cc1oc(C(C)C)nc1CCOc1ccc2c(c1)CN(Cc1ccccc1)[C@H](C(=O)O)C2 [Example 34, 2-Benzyl-7-[2-(5-methyl-2-isopropyloxazol-4-yl)ethoxy]-1,2,3,4-tetrahydroisoquinoline-(3S)-carboxylic acid] | 23.5 | 17.3 | – | –
12 | CCCCN1Cc2cc(OCCc3nc(-c4ccccc4)oc3C)ccc2C[C@H]1C(=O)O [Example 35, 2-Butyl-7-[2-(5-methyl-2-phenyloxazol-4-yl)ethoxy]-1,2,3,4-tetrahydroisoquinoline-(3S)-carboxylic acid] | 22.1 | 12.4 | – | –
13 | CC(C)=Cc1nc(CCOc2ccc3c(c2)CN(Cc2ccccc2)[C@H](C(=O)O)C3)c(C)o1 [Example 36, 2-Benzyl-7-{2-[5-methyl-2-(2-methylpropenyl)oxazol-4-yl]ethoxy}-1,2,3,4-tetrahydroisoquinoline-(3S)-carboxylic acid] | 28.4 | 13.7 | – | –
14 | C=CCN1Cc2cc(OCCc3nc(-c4ccccc4)oc3C)ccc2C[C@H]1C(=O)O [Example 38, 2-Allyl-7-[2-(5-methyl-2-phenyloxazol-4-yl)ethoxy]-1,2,3,4-tetrahydroisoquinoline-(3S)-carboxylic acid] | 28.0 | 30.0 | – | –
15 | O=C(O)[C@@H]1Cc2ccc(OCCC3CNc4ccccc43)cc2CN1Cc1ccccc1 (stereo partly drawn) [Example 41, 2-Benzyl-7-[(indolin-3-yl)ethoxy]-1,2,3,4-tetrahydroisoquinoline-(3S)-carboxylic acid] | 11.1 | – | – | –
16 | CCCCC(=O)N1Cc2cc(OCCc3nc(-c4ccccc4)oc3C)ccc2C[C@H]1C(=O)O [Example 43, 7-[2-(5-Methyl-2-phenyloxazol-4-yl)ethoxy]-2-pentanoyl-1,2,3,4-tetrahydroisoquinoline-(3S)-carboxylic acid] | 27.5 | 20.9 | – | –
17 | CC(C)=CC(=O)N1Cc2cc(OCCc3nc(-c4ccccc4)oc3C)ccc2C[C@H]1C(=O)O [Example 45, 2-(3-Methyl-2-butenoyl)-7-[2-(5-methyl-2-phenyloxazol-4-yl)ethoxy]-1,2,3,4-tetrahydroisoquinoline-(3S)-carboxylic acid] | 12.6 | – | – | –
18 | Cc1oc(-c2ccccc2)nc1CCOc1ccc2c(c1)CN(C(=O)CC(C)(C)C)[C@H](C(=O)O)C2 [Example 46, 2-(3,3-Dimethylbutyryl)-7-[2-(5-methyl-2-phenyloxazol-4-yl)ethoxy]-1,2,3,4-tetrahydroisoquinoline-(3S)-carboxylic acid] | 28.6 | – | – | –
19 | Cc1oc(-c2ccccc2)nc1CCOc1ccc2c(c1)CN(Cc1ccccn1)[C@H](C(=O)[O-])C2.[Na+] [Example 48, Sodium 7-[2-(5-methyl-2-phenyloxazol-4-yl)ethoxy]-2-(pyridin-2-ylmethyl)-1,2,3,4-tetrahydroisoquinoline-(3S)-carboxylate] | 16.1 | – | – | –
20 | CC(C)(C)c1nc2cc(COc3ccc4c(c3)CN(Cc3ccccc3)[C@H](C(=O)O)C4)ccc2o1 [Example 53, 2-Benzyl-7-(2-tert-butylbenzoxazol-5-yl)methoxy-1,2,3,4-tetrahydroisoquinoline-(3S)-carboxylic acid] | 13.6 | – | – | –
21 | CC(C)(C)CN1Cc2cc(OCc3ccc4nc(C(C)(C)C)oc4c3)ccc2C[C@H]1C(=O)O [Example 54, 7-(2-tert-Butylbenzoxazol-6-yl)methoxy-2-(2,2-dimethylpropyl)-1,2,3,4-tetrahydroisoquinoline-(3S)-carboxylic acid] | 10.8 | – | – | –
22 | CC(C)c1nc2cc(COc3ccc4c(c3)CN(Cc3ccccc3)[C@H](C(=O)O)C4)ccc2o1 [Example 55, 2-Benzyl-7-(2-isopropylbenzoxazol-5-yl)methoxy-1,2,3,4-tetrahydroisoquinoline-(3S)-carboxylic acid] | 13.9 | – | – | –
23 | Cc1oc(-c2ccccc2)nc1CCOc1ccc2c(c1)CN(Cc1ccncc1)[C@H](C(=O)[O-])C2.[Na+] [Example 56, Sodium 7-[2-(5-methyl-2-phenyloxazol-4-yl)ethoxy]-2-(pyridin-4-ylmethyl)-1,2,3,4-tetrahydroisoquinoline-(3S)-carboxylate] | – | 14.0 | – | –
24 | Cc1oc(C2CC2)nc1CCOc1ccc2c(c1)CN(Cc1ccccc1)[C@H](C(=O)O)C2 [Example 59, 2-Benzyl-7-[2-(2-cyclopropyl-5-methyloxazol-4-yl)ethoxy]-1,2,3,4-tetrahydroisoquinoline-(3S)-carboxylic acid] | – | 13.7 | – | –
25 | O=C(O)[C@@H]1Cc2ccc(OCCc3cc4ccccc4o3)cc2CN1Cc1ccccc1 [Example 67, 7-[2-(Benzofran-2-yl)ethoxy]-2-benzyl-1,2,3,4-tetrahydroisoquinoline-(3S)-carboxylic acid] | 10.6 | – | – | –
26 | COC(=O)CCC(=O)N1Cc2cc(OCCc3nc(-c4ccccc4)oc3C)ccc2C[C@H]1C(=O)O [Example 70, 2-[3-(Methoxycarbonyl)propionyl]-7-[2-(5-methyl-2-phenyloxazol-4-yl)ethoxy]-1,2,3,4-tetrahydroisoquinoline-(3S)-carboxylic acid] | 15.2 | – | – | –
27 | CCOC(=O)CCCN1Cc2cc(OCCc3nc(-c4ccccc4)oc3C)ccc2C[C@H]1C(=O)O [Example 71, 2-[3-(Ethoxycarbonyl)propyl]-7-[2-(5-methyl-2-phenyloxazol-4-yl)ethoxy]-1,2,3,4-tetrahydroisoquinoline-(3S)-carboxylic acid] | 10.5 | – | – | –
